Laboratory results from ChEMBL document CHEMBL1158119, “Hyrtiazepine, an azepino-indole-type alkaloid from the Red Sea marine sponge Hyrtios erectus” (J Nat Prod, 2006).

Target: T1, Phospholipase A2 alpha (Crotalus adamanteus, UniProt P00623)
T1 sequence (P00623 whole entry): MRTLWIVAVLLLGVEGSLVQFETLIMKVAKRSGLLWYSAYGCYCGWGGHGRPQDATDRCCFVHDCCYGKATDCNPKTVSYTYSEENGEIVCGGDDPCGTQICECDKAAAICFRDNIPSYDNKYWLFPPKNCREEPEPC
Experiment: Inhibition of Crotalus adamanteus venom phospholipase A2 by fluorometric assay

Row | SMILES | IC50 [µM]
1 | CC1=C(CC/C(C)=C/CCC2=CC[C@H](C3=CC(=O)O[C@H]3O)O[C@H]2O)C(C)(C)CCC1 [MANOALIDE] | 0.4
2 | O=C(c1c[nH]c2ccc(O)cc12)c1nccc2c1[nH]c1ccc(O)cc12 [HYRTIOSULAWESINE] | 14
